Source: ChEMBL document CHEMBL5247582 (Eur J Med Chem, 2022)
Active and inactive are the calls of the source. No cut-off for these calls is given here.

Columns and labels:
Mus musculus [1] = assay: Anti-hyperuricemic activity against hypoxanthine/potassium oxonate-induced Kunming mouse model assessed as decrease in serum uric acid ratio at 2 mg/kg, sc measured after 4 hrs; type: functional; set-up: scale not given: the % may be the effect or the level left
Mus musculus [2] = assay: Anti-hyperuricemic activity against hypoxanthine/potassium oxonate-induced Kunming mouse model assessed as reduction in serum uric acid level at 2 mg/kg, sc measured after 4 hrs (reference value: 1010.00 +/- 51.16 uM); type: functional
[3] = biological target: T1, Solute carrier family 22 member 12 (Homo sapiens, UniProt Q96S37); assay: Inhibition of human URAT1 mediated 14C-uric acid uptake expressed in HEK293 cells using 14C-uric acid as substrate incubated for 30 mins by liquid scintillation counting analysis; type: cell-based
T1 sequence (Q96S37 whole entry): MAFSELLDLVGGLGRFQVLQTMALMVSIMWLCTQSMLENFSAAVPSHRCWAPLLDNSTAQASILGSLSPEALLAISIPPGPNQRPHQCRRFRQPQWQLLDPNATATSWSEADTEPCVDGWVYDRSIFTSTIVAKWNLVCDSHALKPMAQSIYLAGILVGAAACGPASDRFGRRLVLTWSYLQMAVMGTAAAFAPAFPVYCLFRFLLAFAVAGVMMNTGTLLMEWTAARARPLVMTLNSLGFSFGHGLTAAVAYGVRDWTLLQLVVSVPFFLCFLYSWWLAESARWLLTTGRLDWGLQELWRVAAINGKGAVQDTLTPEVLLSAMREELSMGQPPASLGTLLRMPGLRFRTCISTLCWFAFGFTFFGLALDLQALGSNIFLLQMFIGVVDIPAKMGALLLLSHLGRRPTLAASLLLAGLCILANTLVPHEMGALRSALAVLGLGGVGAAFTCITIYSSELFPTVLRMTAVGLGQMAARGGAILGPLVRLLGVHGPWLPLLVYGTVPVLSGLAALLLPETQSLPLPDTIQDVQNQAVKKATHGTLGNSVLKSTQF

[4] = Acute toxicity in Kunming female mouse assessed as ruffled fur at 1000 mg/kg, IG; type: organism-based; settings: in vivo, po
[5] = Acute toxicity in Kunming female mouse assessed as survival rate at 1000 mg/kg, IG; type: organism-based; settings: in vivo, po, read-out: Activity
[6] = Acute toxicity in Kunming male mouse assessed as survival rate at 1000 mg/kg, IG; type: organism-based; settings: in vivo, po, read-out: Activity
[7] = Acute toxicity in Kunming female mouse assessed as effect on body weight changes at 1000 mg/kg, IG measured for 7 days; type: organism-based; settings: in vivo, po, 168 h, time 7 day
[8] = Acute toxicity in Kunming female mouse assessed as lethargy at 1000 mg/kg, IG; type: organism-based; settings: in vivo, po
[9] = Acute toxicity in Kunming female mouse assessed as anorexia at 1000 mg/kg, IG; type: organism-based; settings: in vivo, po
[10] = biological target: T2, Solute carrier family 2, facilitated glucose transporter member 9 (Homo sapiens, UniProt Q9NRM0); assay: Inhibition of GLUT9 (unknown origin) transfected in HEK293 cells assessed as inhibition of uric acid-induced current by whole cell patch clamp analysis; type: cell-based
T2 sequence (Q9NRM0 whole entry): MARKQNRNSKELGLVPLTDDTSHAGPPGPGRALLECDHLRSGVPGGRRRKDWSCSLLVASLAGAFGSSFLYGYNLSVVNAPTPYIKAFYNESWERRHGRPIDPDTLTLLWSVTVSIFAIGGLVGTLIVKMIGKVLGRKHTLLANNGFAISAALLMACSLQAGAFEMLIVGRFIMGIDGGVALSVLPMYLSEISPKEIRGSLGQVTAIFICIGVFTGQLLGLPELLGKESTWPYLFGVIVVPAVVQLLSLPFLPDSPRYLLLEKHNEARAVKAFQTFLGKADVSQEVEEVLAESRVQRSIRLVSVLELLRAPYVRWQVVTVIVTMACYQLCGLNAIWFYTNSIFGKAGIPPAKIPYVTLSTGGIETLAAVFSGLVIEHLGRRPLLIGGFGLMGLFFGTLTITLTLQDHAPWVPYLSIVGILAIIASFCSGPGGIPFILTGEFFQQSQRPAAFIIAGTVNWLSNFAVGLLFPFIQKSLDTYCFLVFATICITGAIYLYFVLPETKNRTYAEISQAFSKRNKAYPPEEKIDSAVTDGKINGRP

[11] = Acute toxicity in Kunming female mouse assessed as clonic convulsion at 1000 mg/kg, IG; type: organism-based; settings: in vivo, po
[12] = biological target: T3, Solute carrier family 2, facilitated glucose transporter member 9 (Homo sapiens) (UniProt Q9NRM0); assay: Inhibition of GLUT9 (unknown origin) transfected in HEK293 cells assessed as inhibition of uric acid-induced current at 100 uM by whole cell patch clamp analysis; type: cell-based
T3 sequence (whole entry): T2 sequence (Q9NRM0 whole entry)

## CC(Sc1ccncc1C(=O)N1CCOc2ccccc21)C(=O)O (configuration not stated)
Mus musculus [1]
  Activity: 40.93%
Mus musculus [2]
  Activity: 580 µM

## O=C(CSc1nc2sccc2c(=O)n1-c1ccc(C2CC2)c2ccccc12)NS(=O)(=O)C1CC1
[3]
  IC50: 11.6 µM

## CC(Sc1ccncc1C(=O)N1CCc2ccccc2C1)C(=O)O (configuration not stated)
Mus musculus [1]
  Activity: 52.9%
Mus musculus [2]
  Activity: 479.67 µM

## O=C(O)CSc1nc2sccc2c(=O)n1-c1ccc(C2CC2)c2ccccc12
[3]; hek293
  IC50: 3.27 µM

## O=C(O)CSc1ccncc1C(=O)N1CCc2ccccc2C1
Mus musculus [1]
  Activity: 28.73%
Mus musculus [2]
  Activity: 682.25 µM

## O=C(CSc1nc2sccc2c(=O)n1-c1ccc(C2CC2)c2ccccc12)NS(=O)(=O)c1ccccc1
[3]
  IC50: 11.4 µM

## O=C(CSc1nc2sccc2c(=O)n1-c1ccc(C2CC2)c2ccccc12)NS(=O)(=O)c1ccc([N+](=O)[O-])cc1
[3]
  IC50: 9.72 µM

## O=C(CSc1nc2sccc2c(=O)n1-c1ccc(C2CC2)c2ccccc12)NS(=O)(=O)c1ccc(Cl)s1
[3]
  IC50: 9.7 µM

## O=C(CSc1nc2sccc2c(=O)n1-c1ccc(C2CC2)c2ccccc12)NS(=O)(=O)c1ccc(Br)cc1
[4]
  Activity: Non-Toxic
[5]
  survival: 100%
[6]
  survival: 100%
Mus musculus [1]
  Activity: 73.29%
[7]
  Activity: Non-Toxic
[3]
  IC50: 7.56 µM
[8]
  Activity: Non-Toxic
[9]
  Activity: Non-Toxic
[10]
  IC50: 56 µM
[11]
  Activity: Non-Toxic
Mus musculus [2]
  Activity: 336.67 µM

## O=C(O)CSc1nnc(Br)n1-c1ccc(C2CC2)c2ccccc12
[5]
  survival: 20%
[6]
  survival: 40%
Mus musculus [1]
  Activity: 26%
[12]
  inhibition: inactive
Mus musculus [2]
  Activity: 763 µM

## CCS(=O)(=O)NC(=O)CSc1nc2sccc2c(=O)n1-c1ccc(C2CC2)c2ccccc12
Mus musculus [1]
  Activity: 36.39%
[3]
  IC50: 7.9 µM
Mus musculus [2]
  Activity: 675.67 µM

## O=C(c1cnccc1SC1(C(=O)O)CCC1)N1CCc2ccccc2C1
Mus musculus [1]
  Activity: 36%
Mus musculus [2]
  Activity: 621.33 µM

## O=C(CSc1nc2sccc2c(=O)n1-c1ccc(C2CC2)c2ccccc12)NS(=O)(=O)c1ccc(F)cc1F
[3]
  IC50: 9.92 µM

## O=C(CSc1nc2sccc2c(=O)n1-c1ccc(C2CC2)c2ccccc12)NS(=O)(=O)c1ccc(O)cc1
[3]
  IC50: 20.3 µM

## CC(C)(C)S(=O)(=O)NC(=O)CSc1nc2sccc2c(=O)n1-c1ccc(C2CC2)c2ccccc12
[3]
  IC50: 11.1 µM

## O=C(CSc1nc2sccc2c(=O)n1-c1ccc(C2CC2)c2ccccc12)NS(=O)(=O)c1ccccc1[N+](=O)[O-]
[3]
  IC50: 9.79 µM

## O=C(CSc1nc2sccc2c(=O)n1-c1ccc(C2CC2)c2ccccc12)NS(=O)(=O)c1ccc(F)cc1
[3]
  IC50: 11.4 µM

## O=C(CSc1nc2sccc2c(=O)n1-c1ccc(C2CC2)c2ccccc12)NS(=O)(=O)c1cccc([N+](=O)[O-])c1
[3]
  IC50: 11.5 µM

## O=C(CSc1nc2sccc2c(=O)n1-c1ccc(C2CC2)c2ccccc12)NS(=O)(=O)c1cc(F)cc(F)c1
Mus musculus [1]
  Activity: 54.17%
[3]
  IC50: 7.68 µM
Mus musculus [2]
  Activity: 512.33 µM

## CC(C)S(=O)(=O)NC(=O)CSc1nc2sccc2c(=O)n1-c1ccc(C2CC2)c2ccccc12
[3]
  IC50: 9.25 µM

## O=C(O)CSc1ccncc1C(=O)N1CCOc2ccccc21
Mus musculus [1]
  Activity: 14.4%
Mus musculus [2]
  Activity: 802.33 µM

## CS(=O)(=O)NC(=O)CSc1nc2sccc2c(=O)n1-c1ccc(C2CC2)c2ccccc12
Mus musculus [1]
  Activity: 51.85%
[3]
  IC50: 7.31 µM
Mus musculus [2]
  Activity: 533.67 µM

## CC(C)(C)c1ccc(S(=O)(=O)NC(=O)CSc2nc3sccc3c(=O)n2-c2ccc(C3CC3)c3ccccc23)cc1
[3]
  IC50: 13.5 µM

## O=C(CSc1nc2sccc2c(=O)n1-c1ccc(C2CC2)c2ccccc12)NS(=O)(=O)c1ccc(C(F)(F)F)cc1
[3]
  IC50: 16.2 µM

## O=C(CSc1nc2sccc2c(=O)n1-c1ccc(C2CC2)c2ccccc12)NS(=O)(=O)c1ccc(Cl)cc1
[3]
  IC50: 11.9 µM

## O=C(O)CCSc1ccncc1C(=O)N1CCOc2ccccc21
Mus musculus [1]
  Activity: 24.3%
Mus musculus [2]
  Activity: 719.33 µM
